We go through three compounds from patent publication US20230111310A1, “CARBOXYLIC ACID DERIVATIVE-SUBSTITUTED IMINO ARYL COMPOUND, PREPARATION METHOD THEREFOR, HERBICIDAL COMPOSITION AND USE THEREOF” (Qingdao Kingagroot Chemical Compound Co., Ltd., priority 2020, published 2023).

SMILES strings stand for the structures.

Common to all, as to format: in vivo
Data set [1] concerns Abutilon theophrasti. Nature of the data set: Weeding effect in post-emergence stage. Conditions: Dose 15 g/ha; level of fresh weight growth control rate. The method in brief: (§1)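 Doses of 500, 250, 125, 60, 30, 15 and 7.5 g/ha, with methyl oleate synergist (1.5 liter/ha) and Tween 80 from acetone solution, applied by spray tower post-emergence (2–3 leaf stage). Weed control scored after 3 further greenhouse weeks, averaged over triplicates.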

The next data set relates to Alopecurus japonicus. In words: Weeding effect in post-emergence stage. Conditions: Dose 15 g/ha; level of fresh weight growth control rate. The method in brief:
as §1

The subject of a further data set is Digitaria sanguinalis. In words: Weeding effect in post-emergence stage. As to conditions: Dose 15 g/ha; level of fresh weight growth control rate. The method in brief: as §1
Another data set concerns Eleusine indica. In words: Weeding effect in post-emergence stage. Conditions: Dose 15 g/ha; level of fresh weight growth control rate. The method in brief: as §1
The test system of data set [2] is Setaria viridis. In words: Weeding effect in post-emergence stage. Conditions: Dose 15 g/ha; level of fresh weight growth control rate. The method in brief:
as §1

Another data set has as its system Echinochloa crusgalli. In words: Weeding effect in post-emergence stage. Conditions: Dose 15 g/ha; level of fresh weight growth control rate. The method in brief:
as §1

Data set [3] concerns Abutilon theophrasti. In words: Weeding effect in pre-emergence stage. As to conditions: 30 g/ha, 4 weeks. The method in brief:
(§2)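 Pots were kept in the greenhouse for 4 weeks and then rated for growth control on activity-level criteria. Spraying took place immediately after sowing at application rates of 500 to 7.5 g/ha, using an acetone/tween 80 formulation diluted with water, on seeds under 0.5-2 cm of soil.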

Another data set concerns Amaranthus retroflexus. Nature of the data set: Weeding effect in pre-emergence stage. As to conditions: 30 g/ha, 4 weeks. The method in brief:
as §2

Another data set relates to Capsella bursa-pastoris. In words: Weeding effect in pre-emergence stage. Conditions: 30 g/ha, 4 weeks. The method in brief: as §2
In a further data set the test system is Descurainia sophia. In words: Weeding effect in pre-emergence stage. Conditions: 30 g/ha, 4 weeks. The method in brief: as §2
For data set [4], the system named is Setaria viridis. In words: Weeding effect in pre-emergence stage. Conditions: 30 g/ha, 4 weeks. The method in brief:
as §2

A further data set relates to Veronica didyma Tenore. In words: Weeding effect in pre-emergence stage. As to conditions: 30 g/ha, 4 weeks. The method in brief:
as §2

The test system of a further data set is Peanut. Nature of the data set: Pre-emergence stage, crop selectivity. Conditions: 30 g/ha, 4 weeks. The method in brief: as §2
The subject of another data set is Soybeans. Nature of the data set: Pre-emergence stage, crop selectivity. As to conditions: 30 g/ha, 4 weeks. The method in brief:
as §2

In another data set the test system is corn. In words: Pre-emergence stage, crop selectivity. Conditions: 30 g/ha, 4 weeks. The method in brief: as §2
Another data set deals with cotton. In words: Pre-emergence stage, crop selectivity. Conditions: 30 g/ha, 4 weeks. The method in brief:
as §2

The next data set relates to Leptochloa chinensis. In words: Weed control effect evaluation in rice field. Conditions: rice field pot, 30 g/ha, 14 days after treatment. The text has this: (§3) The activity level criteria for plant damage (i.e., growth control rate) are as follows:
(§4) Rice field soil was loaded into a 1/1,000,000 ha pot. The seeds of Echinochloa crusgalli. Scirpus juncoides. Bidens tripartita L., Monochoria vaginalis, and Leptochloa chinensis were sowed and gently covered with soil, then left to stand still in greenhouse in the state of 0.5-1 cm of water storage. The tuber of Sagittaria trifolia was planted in the next day or 2 days later. It was kept at 3-4 cm of water storage thereafter. The weeds were treated by dripping the WP or SC water diluents prepared according to the common preparation method of the compounds of the present invention with pipette homogeneously to achieve specified effective amount when Echinochloa crusgalli. Scirpus juncoides, Bidens tripartita L., Monochoria vaginalis, and Leptochloa chinensis reached 0.5 leaf stage and Sagittaria trifolia reached the time point of primary leaf stage.
(§5) The fertility condition of Echinochloa crusgalli. Scirpus juncoides. Bidens tripartita L., Monochoria vaginalis, Leptochloa chinensis and Sagittaria trifolia 14 days after the treatment of the compound of the invention and the fertility condition of rice 21 days after the treatment of the compound of the invention respectively with the naked eye. Evaluate the weed control effect with the above activity standard level. Many compounds show excellent activity and selectivity.

A further data set deals with Monochoria vaginalis. In words: Weed control effect evaluation in rice field. Conditions: rice field pot, 30 g/ha, 14 days after treatment.
Excerpt: as §3, §4, §5

The subject of a further data set is Scirpus juncoides. Nature of the data set: Weed control effect evaluation in rice field. Conditions: rice field pot, 30 g/ha, 14 days after treatment.
Excerpt: as §3, §4, §5

A further data set deals with Rice. Nature of the data set: Transplanted rice safety evaluation. As to conditions: transplanted japonica rice, 30 g/ha, 21 days after treatment. The protocol:
as §3
In addition, the rice field soil that loaded into the 1/1,000,000 ha pot was leveled to keep water storage at 3-4 cm depth. The 5 leaf stage rice (japonica rice) was transplanted at 3 cm of transplanting depth the next day. The compound of the present invention was treated by the same way after 5 days of transplantation.
as §5

Take `CCOC(=O)[C@@H](C)O/N=C/c1cc(-n2c(=O)cc(C(F)(F)F)n(C)c2=O)c(F)cc1Cl` [196(R)]: the “Weeding effect in post-emergence stage, Abutilon theophrasti” value (“Weeding effect … Abutilon theophrasti” for short) in the data set on Abutilon theophrasti [1] is on record as 5 (Level 5: growth control rate is above 85%). Also, in the data set on Alopecurus japonicus, the “Weeding effect in post-emergence stage, Alopecurus japonicus” value (“Weeding effect … Alopecurus japonicus” below) is recorded as 5 (Level 5: growth control rate is above 85%). For the same compound, the “Weeding effect in post-emergence stage, Digitaria sanguinalis” value (shortened to “Weeding effect … Digitaria sanguinalis”) in the data set on Digitaria sanguinalis is recorded as 5 (Level 5: growth control rate is above 85%). The “Weeding effect in post-emergence stage, Eleusine indica” value (from here on “Weeding effect … Eleusine indica”) in the data set with Eleusine indica is given as 5 (Level 5: growth control rate is above 85%). In the data set with Setaria viridis [2], the “Weeding effect in post-emergence stage, Setaria viridis” value (shortened to “Weeding effect … Setaria viridis”) is recorded as 5 (Level 5: growth control rate is above 85%). In the data set with Echinochloa crusgalli, the “Weeding effect in post-emergence stage, Echinochloa crusgalli” value (“Weeding effect … Echinochloa crusgalli” below) is 5 (Level 5: growth control rate is above 85%). Further, the “activity level (growth control rate) Abutilon theophrasti” value in the data set with Abutilon theophrasti [3] is recorded as 5 (Level 5: growth control rate is above 85%). For the same compound, the “activity level (growth control rate) Amaranthus retroflexus” value in the data set on Amaranthus retroflexus is 5 (Level 5: growth control rate is above 85%). The “activity level (growth control rate) Capsella bursa-pastoris” value in the data set on Capsella bursa-pastoris is recorded as 5 (Level 5: growth control rate is above 85%). In the data set with Descurainia sophia, the “activity level (growth control rate) Descurainia sophia” value is recorded as 5 (Level 5: growth control rate is above 85%). Further, the “activity level (growth control rate) Setaria viridis” value with Setaria viridis [4] was 5 (Level 5: growth control rate is above 85%). Besides, the “activity level (growth control rate) Veronica didyma Tenore” value in the data set on Veronica didyma Tenore is listed as 5 (Level 5: growth control rate is above 85%). Further, in the data set on Peanut, the “plant damage level Peanut” value is 0 (Level 0: growth control rate is less than 5%). Also, in the data set with Soybeans, the “plant damage level Soybeans” value was 0 (Level 0: growth control rate is less than 5%). Besides, in the data set on corn, the “plant damage level Corn” value is listed as 0 (Level 0: growth control rate is less than 5%). Further, the “plant damage level Cotton” value in the data set on cotton was 0 (Level 0: growth control rate is less than 5%). Moreover, the “activity level (weed control effect) Leptochloa chinensis” value in the data set with Leptochloa chinensis is given as 5 (Level 5: growth control rate is above 85%). Further, the “activity level (weed control effect) Monochoria vaginalis” value with Monochoria vaginalis is given as 5 (Level 5: growth control rate is above 85%). Also, the “activity level (weed control effect) Scirpus juncoides” value in the data set on Scirpus juncoides is given as 5 (Level 5: growth control rate is above 85%). Besides, the “plant damage level Rice” value with Rice is 0 (Level 0: growth control rate is less than 5%).
As to `C#CCOC(=O)[C@@H](C)O/N=C/c1cc(-n2c(=O)cc(C(F)(F)F)n(C)c2=O)c(F)cc1Cl` [212(R)], in the data set on Abutilon theophrasti [1], the “Weeding effect … Abutilon theophrasti” value was 5 (Level 5: growth control rate is above 85%). The “Weeding effect … Alopecurus japonicus” value with Alopecurus japonicus is 5 (Level 5: growth control rate is above 85%). Besides, in the data set with Digitaria sanguinalis, the “Weeding effect … Digitaria sanguinalis” value is listed as 5 (Level 5: growth control rate is above 85%). The “Weeding effect … Eleusine indica” value with Eleusine indica is 5 (Level 5: growth control rate is above 85%). In addition, the “Weeding effect … Setaria viridis” value with Setaria viridis [2] is 5 (Level 5: growth control rate is above 85%). Moreover, the “Weeding effect … Echinochloa crusgalli” value in the data set with Echinochloa crusgalli is 5 (Level 5: growth control rate is above 85%). Also, the “activity level (growth control rate) Abutilon theophrasti” value in the data set with Abutilon theophrasti [3] is given as 5 (Level 5: growth control rate is above 85%). The “activity level (growth control rate) Amaranthus retroflexus” value in the data set on Amaranthus retroflexus is on record as 5 (Level 5: growth control rate is above 85%). In addition, the “activity level (growth control rate) Capsella bursa-pastoris” value in the data set on Capsella bursa-pastoris is 5 (Level 5: growth control rate is above 85%). For the same compound, in the data set on Descurainia sophia, the “activity level (growth control rate) Descurainia sophia” value is reported as 5 (Level 5: growth control rate is above 85%). Moreover, the “activity level (growth control rate) Setaria viridis” value with Setaria viridis [4] is reported as 5 (Level 5: growth control rate is above 85%). Moreover, in the data set with Veronica didyma Tenore, the “activity level (growth control rate) Veronica didyma Tenore” value is given as 5 (Level 5: growth control rate is above 85%). In addition, the “plant damage level Peanut” value in the data set on Peanut was 0 (Level 0: growth control rate is less than 5%). In addition, the “plant damage level Soybeans” value with Soybeans is 0 (Level 0: growth control rate is less than 5%). In addition, in the data set with corn, the “plant damage level Corn” value is given as 0 (Level 0: growth control rate is less than 5%). For the same compound, in the data set with cotton, the “plant damage level Cotton” value is on record as 0 (Level 0: growth control rate is less than 5%). Also, in the data set with Leptochloa chinensis, the “activity level (weed control effect) Leptochloa chinensis” value was 5 (Level 5: growth control rate is above 85%). The “activity level (weed control effect) Monochoria vaginalis” value in the data set on Monochoria vaginalis is given as 5 (Level 5: growth control rate is above 85%). Moreover, the “activity level (weed control effect) Scirpus juncoides” value with Scirpus juncoides is reported as 5 (Level 5: growth control rate is above 85%). The “plant damage level Rice” value in the data set on Rice was 0 (Level 0: growth control rate is less than 5%).
As to `C[C@@H](O/N=C/c1cc(-n2c(=O)cc(C(F)(F)F)n(C)c2=O)c(F)cc1Cl)C(=O)OCC(F)(F)F` [218(R)], the “Weeding effect … Abutilon theophrasti” value in the data set on Abutilon theophrasti [1] is 5 (Level 5: growth control rate is above 85%). Besides, the “Weeding effect … Alopecurus japonicus” value in the data set with Alopecurus japonicus is on record as 5 (Level 5: growth control rate is above 85%). The “Weeding effect … Digitaria sanguinalis” value in the data set on Digitaria sanguinalis is 5 (Level 5: growth control rate is above 85%). Further, the “Weeding effect … Eleusine indica” value with Eleusine indica is 5 (Level 5: growth control rate is above 85%). For the same compound, the “Weeding effect … Setaria viridis” value in the data set on Setaria viridis [2] is listed as 5 (Level 5: growth control rate is above 85%). In addition, the “Weeding effect … Echinochloa crusgalli” value in the data set on Echinochloa crusgalli was 5 (Level 5: growth control rate is above 85%). The “activity level (growth control rate) Abutilon theophrasti” value in the data set with Abutilon theophrasti [3] is on record as 5 (Level 5: growth control rate is above 85%). In addition, the “activity level (growth control rate) Amaranthus retroflexus” value in the data set on Amaranthus retroflexus is reported as 5 (Level 5: growth control rate is above 85%). Further, in the data set with Capsella bursa-pastoris, the “activity level (growth control rate) Capsella bursa-pastoris” value is reported as 5 (Level 5: growth control rate is above 85%). The “activity level (growth control rate) Descurainia sophia” value in the data set on Descurainia sophia is 5 (Level 5: growth control rate is above 85%). Moreover, in the data set on Setaria viridis [4], the “activity level (growth control rate) Setaria viridis” value is reported as 5 (Level 5: growth control rate is above 85%). Moreover, the “activity level (growth control rate) Veronica didyma Tenore” value in the data set with Veronica didyma Tenore is 5 (Level 5: growth control rate is above 85%). The “plant damage level Peanut” value in the data set on Peanut is 0 (Level 0: growth control rate is less than 5%). Also, the “plant damage level Soybeans” value in the data set with Soybeans is 0 (Level 0: growth control rate is less than 5%). In the data set with corn, the “plant damage level Corn” value is 0 (Level 0: growth control rate is less than 5%). Also, the “plant damage level Cotton” value in the data set with cotton was 0 (Level 0: growth control rate is less than 5%). Further, in the data set with Leptochloa chinensis, the “activity level (weed control effect) Leptochloa chinensis” value is 5 (Level 5: growth control rate is above 85%). The “activity level (weed control effect) Monochoria vaginalis” value in the data set with Monochoria vaginalis is 5 (Level 5: growth control rate is above 85%). Moreover, the “activity level (weed control effect) Scirpus juncoides” value in the data set with Scirpus juncoides is on record as 5 (Level 5: growth control rate is above 85%). In addition, the “plant damage level Rice” value in the data set on Rice is on record as 0 (Level 0: growth control rate is less than 5%).
